Holding throughout (assay): Postemergence herbicidal activity of mixtures in cereal crops (greenhouse, visual injury)
What all share (format): in vivo

Test [1] deals with green foxtail (Setaria viridis L; SETVI). Summed up: (§1)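 Injury ratings (0–100%) taken 20–22 days post-spray versus solvent-blank controls. Treatment: 187 L/ha track spray, 2nd–3rd leaf plants, Compound A/B with second cereal herbicide.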
Test [2] deals with Canada thistle (Cirsium arvense L; CIRAR). The essentials:
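Weeds grown in greenhouse (~14 h photoperiod, ~18/17 °C day/night) to second–third true leaf stage, sprayed postemergence with compound and second cereal herbicide alone or combined; solvent-blank controls. Injury scored visually after 20-22 days, 0–100% (complete kill); expected mixture activity = A+B−(A×B/100).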

Test [3] deals with cut-leaf geranium (Geranium dissectum L; GERDI). The essentials:
as §1

For test [4], the system named is wild buckwheat (Polygonum convolvulus L; POLCO). Summed up: as §1
For test [5], the system named is Russian thistle (Salsola iberica L; SASKR). The essentials: as §1
Test [6] deals with rigid ryegrass (Lolium rigidum L; LOLRI). Summed up:
as §1

Test [7] deals with black mustard (Brassica nigra L; BRSNI). Particulars: Brassica, post-emergence, read-out: BRSNI Ob. Summed up:
as §1

Several values for one entry are separate records, joined by “and”; a condition that tells them apart may be missing. Identical values can stand only once. Like-named read-outs stand apart in the source and are kept apart here.

In the case of `COC(=O)c1nc(-c2ccc(Cl)c(OC)c2F)cc(N)c1Cl` [Compound A Methyl, 4-amino-3-chloro-6-(4-chloro-2-fluoro-3-methoxyphenyl)pyridine-2-carboxylic acid methyl ester], the “SETVI Ob” value in test [1] (17.5 g/ha, Table 1) worked out at 70%; in test [1] (35 g/ha, Table 1), 75%; in test [1] (35 g/ha, Table 7), 77%; in test [1] (70 g/ha, Table 1), 80%; in test [1] (70 g/ha, Table 7), 82%; in test [1] (140 g/ha, Table 7), 91%.

Take `COc1c(Cl)ccc(-c2cc(N)c(Cl)c(C(=O)O)n2)c1F` [Compound A TEA, 4-amino-3-chloro-6-(4-chloro-2-fluoro-3-methoxyphenyl)pyridine-2-carboxylic acid]: the figures for the “CIRAR Ob” value in test [2] (35 g/ha), in test [2] (70 g/ha) and in test [2] (140 g/ha) were 50%, 60% and 65%, respectively. Further, the “GERDI Ob” value is 50% in test [3] (8.75 g/ha); 50% and 38% in test [3] (8.75 g/ha alone); 55% in test [3] (17.5 g/ha); 55% and 50% in test [3] (17.5 g/ha alone); 65% in test [3] (35 g/ha); 65% and 80% in test [3] (35 g/ha alone). In test [3] (70 g/ha alone), the “GERDI Ob” value was 78% and 85%. Besides, the “POLCO Ob” value in test [4] (8.75 g/ha) was 90%; in test [4] (8.75 g/ha alone) it was 90% and 76%; in test [4] (17.5 g/ha), 93%; in test [4] (17.5 g/ha alone), 93% and 88%; in test [4] (35 g/ha) it was 98%; in test [4] (35 g/ha alone) it was 98% and 96%. The “POLCO Ob” value in test [4] (70 g/ha) and in test [4] (70 g/ha alone) was 99% in each case. The “SASKR Ob” value in test [5] (8.75 g/ha alone) is listed as 80%; in test [5] (17.5 g/ha alone), 84%; in test [5] (35 g/ha alone), 87%; in test [5] (70 g/ha alone), 93%. Moreover, the “LOLRI Ob” value in test [6] (35 g/ha, Table 12) stood at 0%; in test [6] (35 g/ha, Table 17), 0%; in test [6] (70 g/ha, Table 12) it was 0%; in test [6] (70 g/ha, Table 17), 0%; in test [6] (140 g/ha, Table 12) it was 10%; in test [6] (140 g/ha, Table 17), 10%. The LOLRI came out at 0% in test [6] (35 g/ha, Table 13); 0% in test [6] (35 g/ha, Table 19); 0% in test [6] (70 g/ha, Table 13); 0% in test [6] (70 g/ha, Table 19); 10% in test [6] (140 g/ha, Table 13); 10% in test [6] (140 g/ha, Table 19). In addition, the pest or weed control at 8.75 g/ha in test [7] (8.75 g/ha alone) and in test [7] (8.75 g/ha) was 70% each time. Moreover, the pest or weed control at 17.5 g/ha in test [7] (17.5 g/ha alone) and in test [7] (17.5 g/ha) was 91% in each case. For the same compound, the pest or weed control at 35 g/ha in test [7] (35 g/ha alone) and in test [7] (35 g/ha) was 98% throughout. Moreover, the pest or weed control at 70 g/ha in test [7] (70 g/ha alone) and in test [7] (70 g/ha) was 99% throughout.
